{"source": "BindingDB's records for doi:10.1021/jm0704651", "about": "(University of Turin, 2007)", "molecular_target": "T1, Lanosterol synthase (Homo sapiens, UniProt P48449)", "T1 sequence (P48449 whole entry)": "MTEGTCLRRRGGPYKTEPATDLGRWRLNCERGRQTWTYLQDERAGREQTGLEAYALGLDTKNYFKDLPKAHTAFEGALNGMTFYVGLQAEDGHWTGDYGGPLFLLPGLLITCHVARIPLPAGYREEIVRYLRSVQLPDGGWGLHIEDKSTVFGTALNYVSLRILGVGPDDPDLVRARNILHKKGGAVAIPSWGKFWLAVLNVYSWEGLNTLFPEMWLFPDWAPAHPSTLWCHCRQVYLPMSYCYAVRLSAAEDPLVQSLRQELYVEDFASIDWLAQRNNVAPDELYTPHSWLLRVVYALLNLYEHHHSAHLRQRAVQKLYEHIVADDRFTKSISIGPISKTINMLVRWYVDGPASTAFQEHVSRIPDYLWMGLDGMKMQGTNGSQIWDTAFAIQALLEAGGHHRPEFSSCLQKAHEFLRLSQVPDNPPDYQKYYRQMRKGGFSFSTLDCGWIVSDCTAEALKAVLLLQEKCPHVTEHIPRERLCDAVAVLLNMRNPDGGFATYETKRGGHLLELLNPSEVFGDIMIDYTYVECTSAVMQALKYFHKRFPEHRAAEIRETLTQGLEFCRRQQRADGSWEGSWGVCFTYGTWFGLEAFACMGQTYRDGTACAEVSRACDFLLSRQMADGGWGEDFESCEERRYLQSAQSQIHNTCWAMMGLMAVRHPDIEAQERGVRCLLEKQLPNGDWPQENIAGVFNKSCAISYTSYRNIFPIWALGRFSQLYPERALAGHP", "assay": "Inhibition of oxidosqualene cyclase"}
{"compound": "C=CCN(C)CCCCCCOc1ccc2c(-c3ccc(Br)cc3)nn(C)c2c1", "values": [{"measurement": "IC50", "result": 19, "unit": "nM"}]}
